Reference: patent US20250360109A1, “COMPOSITIONS AND METHODS FOR TREATING DEPRESSION IN FEMALES” (priority 2022, published 2025)

Columns and labels:
[1] = test system: adult subjects with major depressive disorder (MDD); test: Phase 2 placebo-controlled study in MDD, Montgomery-Asberg Depression Rating Scale (MADRS) total score; assay type: in vivo, human; conditions: for Change from Baseline, MADRS Total at Week 1, LSM Difference (95% CI) / Change from Baseline, MADRS Total at Week 2, LSM Difference (95% CI) / Change from Baseline, MADRS Total at Week 3, LSM Difference (95% CI) / Change from Baseline, MADRS Total at Week 4, LSM Difference (95% CI): 20 mg/day vs Placebo, MMRM; for Change from Baseline, MADRS Total at Week 1, LSM Difference (95% CI) / Change from Baseline, MADRS Total at Week 2, LSM Difference (95% CI) / Change from Baseline, MADRS Total at Week 3, LSM Difference (95% CI) / Change from Baseline, MADRS Total at Week 4, LSM Difference (95% CI) / Change from Baseline, MADRS Total at Week 1, Mean (SD) / Change from Baseline, MADRS Total at Week 1, Median / Change from Baseline, MADRS Total at Week 2, Mean (SD) / Change from Baseline, MADRS Total at Week 2, Median / Change from Baseline, MADRS Total at Week 3, Mean (SD) / Change from Baseline, MADRS Total at Week 3, Median / Change from Baseline, MADRS Total at Week 4, Mean (SD) / Change from Baseline, MADRS Total at Week 4, Median / MADRS Total at Week 1, Mean (SD) / MADRS Total at Week 1, Median / MADRS Total at Week 2, Mean (SD) / MADRS Total at Week 2, Median / MADRS Total at Week 3, Mean (SD) / MADRS Total at Week 3, Median / MADRS Total at Week 4, Mean (SD) / MADRS Total at Week 4, Median: mITT; for Change from Baseline, MADRS Total at Week 1, Mean (SD) / Change from Baseline, MADRS Total at Week 1, Median / Change from Baseline, MADRS Total at Week 2, Mean (SD) / Change from Baseline, MADRS Total at Week 2, Median / Change from Baseline, MADRS Total at Week 3, Mean (SD) / Change from Baseline, MADRS Total at Week 3, Median / Change from Baseline, MADRS Total at Week 4, Mean (SD) / Change from Baseline, MADRS Total at Week 4, Median / MADRS Total at Week 1, Mean (SD) / MADRS Total at Week 1, Median / MADRS Total at Week 2, Mean (SD) / MADRS Total at Week 2, Median / MADRS Total at Week 3, Mean (SD) / MADRS Total at Week 3, Median / MADRS Total at Week 4, Mean (SD) / MADRS Total at Week 4, Median: 20 mg/day
Protocol: (§1) A Phase 2, multicenter, double-blind, randomized, placebo-controlled study of the safety and efficacy of SP-624 in the treatment of adult subjects with major depressive disorder (MDD) as defined by the Diagnostic and Statistical Manual of Mental Disorders, Fifth Edition (DSM-5) was carried out. Following the successful completion of a Screening Phase, subjects were randomized to one of two treatment groups in a 1:1 ratio and received Compound 1 (SP-624) or placebo over a treatment period of four weeks (Treatment Group #1: SP-624 20 mg/day; Treatment Group #2: Placebo).
(§2) Prior to initiating the 4-week treatment period, subjects completed a Screening/Baseline period of up to 28 days, during which time all screening assessments were performed, and any current depression medications discontinued. All screening assessments were completed before discontinuing any current depression medications. Subjects returned for a Baseline Visit to complete efficacy and safety assessments. During the treatment period, subjects returned to the investigative site to complete efficacy and safety assessments at the end of Weeks 1, 2, 3, and 4. After the final dose of study drug, subjects completed a follow-up period of two weeks and returned at the end of Weeks 5 and 6. Subjects may be treated with anti-depressant medications according to physician recommendations after completion of the Week 5 Visit.
(§3) Each dose of Compound 1 was supplied as two capsules, each containing 10 mg of active pharmaceutical ingredient (API). Matching placebo capsules identical in shape and color to the active capsules were used.
The primary efficacy endpoint was Change from Baseline to Week 4 in Montgomery-Asberg Depression Rating Scale (MADRS) total score.
(§4) Secondary efficacy endpoints included: • Change from Baseline to Weeks 1, 2, and 3 in MADRS total score, • Change from Baseline to Weeks 1, 2, 3, and 4 in Clinical Global Impression-Severity (CGI-S) total score, • Change from Baseline to Week 5 and change from Week 4 to Week 5 in MADRS total score and CGI-S total score, • Change from Baseline to Week 2 and Week 4 in the 17-item Hamilton Depression Rating Scale (HAM D-17) total score, • Change from Baseline to Week 2 and Week 4 in the Sheehan Disability Scale (SDS), • Change from Baseline to Week 2 and Week 4 in the Quick Inventory of Depressive Symptomology-Self Report (QIDS-SR), and • Change from Baseline to Week 2 and Week 4 in the Quality of Life Enjoyment and Satisfaction Questionnaire-Short Form (Q-LES-Q-SF).

[2] = test system: adult subjects with major depressive disorder (MDD); test: Phase 2 placebo-controlled study in MDD, 17-item Hamilton Depression Rating Scale (HAM D-17) total score; assay type: in vivo, human; conditions: mITT; for Change from Baseline, HAM-D-17 Total at Week 2, LSM Difference (95% CI) / Change from Baseline, HAM-D-17 Total at Week 4, LSM Difference (95% CI): 20 mg/day vs Placebo; for Change from Baseline, HAM-D-17 Total at Week 2, Mean (SD) / Change from Baseline, HAM-D-17 Total at Week 2, Median / Change from Baseline, HAM-D-17 Total at Week 4, Mean (SD) / Change from Baseline, HAM-D-17 Total at Week 4, Median / HAM-D-17 Total at Week 2, Mean (SD) / HAM-D-17 Total at Week 2, Median / HAM-D-17 Total at Week 4, Mean (SD) / HAM-D-17 Total at Week 4, Median: 20 mg/day
Protocol: as §1, §2, §3, §4

COC1=CC(=O)C[C@@H](C)[C@]12Oc1c(Cl)c(-c3nnc(C)o3)cc(OC)c1C2=O [SP-624, (2S,6′R)-7-Chloro-2′,4-dimethoxy-6′-methyl-6-(5-methyl-1,3,4-oxadiazol-2-yl)-3H-spiro[1-benzofuran-2,1′-cyclohex [2]ene]-3,4′-dione] was tested, and the “Change from Baseline, MADRS Total at Week 1, LSM Difference (95% CI)” value ([1]; Female) was −0.9 (−2.8, 1.1), the “Change from Baseline, MADRS Total at Week 2, LSM Difference (95% CI)” value ([1]; Female) was −1.9 (−4.3, 0.5) and the “Change from Baseline, MADRS Total at Week 3, LSM Difference (95% CI)” value ([1]; Female) was −3.5 (−6.2, −0.8). The “Change from Baseline, MADRS Total at Week 4, LSM Difference (95% CI)” value ([1]; Female) was −3.9 (−6.8, −1.0), the “Change from Baseline, MADRS Total at Week 1, Mean (SD)” value ([1]; Female) was −6.6 (6.19) and the “Change from Baseline, MADRS Total at Week 1, Median” value ([1]; Female) was −6. For the same compound, the “Change from Baseline, MADRS Total at Week 2, Mean (SD)” value ([1]; Female) was −10.1 (8.20), the “Change from Baseline, MADRS Total at Week 2, Median” value ([1]; Female) was −8 and the “Change from Baseline, MADRS Total at Week 3, Mean (SD)” value ([1]; Female) was −12.5 (9.74). The “Change from Baseline, MADRS Total at Week 3, Median” value ([1]; Female) was −11, the “Change from Baseline, MADRS Total at Week 4, Mean (SD)” value ([1]; Female) was −13.5 (10.40) and the “Change from Baseline, MADRS Total at Week 4, Median” value ([1]; Female) was −13. The “MADRS Total at Week 1, Mean (SD)” value ([1]; Female) was 26.7 (8.10), the “MADRS Total at Week 1, Median” value ([1]; Female) was 27 and the “MADRS Total at Week 2, Mean (SD)” value ([1]; Female) was 23.1 (8.76). For the same compound, the “MADRS Total at Week 2, Median” value ([1]; Female) was 25, the “MADRS Total at Week 3, Mean (SD)” value ([1]; Female) was 20.8 (10.11) and the “MADRS Total at Week 3, Median” value ([1]; Female) was 21. The “MADRS Total at Week 4, Mean (SD)” value ([1]; Female) was 19.8 (10.75), the “MADRS Total at Week 4, Median” value ([1]; Female) was 21 and the “Change from Baseline, MADRS Total at Week 1, LSM Difference (95% CI)” value ([1]; Male) was 0.7 (−2.7, 4.1). For the same compound, the “Change from Baseline, MADRS Total at Week 2, LSM Difference (95% CI)” value ([1]; Male) was −0.7 (−4.1, 2.8), the “Change from Baseline, MADRS Total at Week 3, LSM Difference (95% CI)” value ([1]; Male) was 2.2 (−1.3, 5.8) and the “Change from Baseline, MADRS Total at Week 4, LSM Difference (95% CI)” value ([1]; Male) was 2.7 (−0.8, 6.3). For the same compound, the “Change from Baseline, MADRS Total at Week 1, Mean (SD)” value ([1]; Male) was −6.6 (7.04), the “Change from Baseline, MADRS Total at Week 1, Median” value ([1]; Male) was −5 and the “Change from Baseline, MADRS Total at Week 2, Mean (SD)” value ([1]; Male) was −9.8 (8.94). For the same compound, the “Change from Baseline, MADRS Total at Week 2, Median” value ([1]; Male) was −9, the “Change from Baseline, MADRS Total at Week 3, Mean (SD)” value ([1]; Male) was −10.6 (9.28) and the “Change from Baseline, MADRS Total at Week 3, Median” value ([1]; Male) was −9. The “Change from Baseline, MADRS Total at Week 4, Mean (SD)” value ([1]; Male) was −11.4 (9.44), the “Change from Baseline, MADRS Total at Week 4, Median” value ([1]; Male) was −10 and the “MADRS Total at Week 1, Mean (SD)” value ([1]; Male) was 25.5 (7.31). For the same compound, the “MADRS Total at Week 1, Median” value ([1]; Male) was 26, the “MADRS Total at Week 2, Mean (SD)” value ([1]; Male) was 22.6 (9.35) and the “MADRS Total at Week 2, Median” value ([1]; Male) was 24. For the same compound, the “MADRS Total at Week 3, Mean (SD)” value ([1]; Male) was 21.4 (9.60), the “MADRS Total at Week 3, Median” value ([1]; Male) was 22 and the “MADRS Total at Week 4, Mean (SD)” value ([1]; Male) was 20.8 (9.61). For the same compound, the “MADRS Total at Week 4, Median” value ([1]; Male) was 21, the “lowering the MADRS score by an average of” value ([1]; females, therapeutically effective) was 3.9 points and the “effect on MADRS score” value ([1]; males) was “no effect”. For the same compound, the “Change from Baseline, HAM-D-17 Total at Week 2, LSM Difference (95% CI)” value ([2]; Female) was −0.9 (−2.6, 0.8), the “Change from Baseline, HAM-D-17 Total at Week 4, LSM Difference (95% CI)” value ([2]; Female) was −2.3 (−4.2, −0.4) and the “Change from Baseline, HAM-D-17 Total at Week 2, Mean (SD)” value ([2]; Female) was −6.4 (5.99). For the same compound, the “Change from Baseline, HAM-D-17 Total at Week 2, Median” value ([2]; Female) was −5, the “Change from Baseline, HAM-D-17 Total at Week 4, Mean (SD)” value ([2]; Female) was −8.8 (6.82) and the “Change from Baseline, HAM-D-17 Total at Week 4, Median” value ([2]; Female) was −8. For the same compound, the “HAM-D-17 Total at Week 2, Mean (SD)” value ([2]; Female) was 16.6 (6.25), the “HAM-D-17 Total at Week 2, Median” value ([2]; Female) was 17 and the “HAM-D-17 Total at Week 4, Mean (SD)” value ([2]; Female) was 14.6 (7.03). For the same compound, the “HAM-D-17 Total at Week 4, Median” value ([2]; Female) was 15, the “Change from Baseline, HAM-D-17 Total at Week 2, LSM Difference (95% CI)” value ([2]; Male) was 0.1 (−2.6, 2.8) and the “Change from Baseline, HAM-D-17 Total at Week 4, LSM Difference (95% CI)” value ([2]; Male) was 1.4 (−1.4, 4.3). For the same compound, the “Change from Baseline, HAM-D-17 Total at Week 2, Mean (SD)” value ([2]; Male) was −5.7 (5.90), the “Change from Baseline, HAM-D-17 Total at Week 2, Median” value ([2]; Male) was −5 and the “Change from Baseline, HAM-D-17 Total at Week 4, Mean (SD)” value ([2]; Male) was −7.8 (6.57). The “Change from Baseline, HAM-D-17 Total at Week 4, Median” value ([2]; Male) was −7, the “HAM-D-17 Total at Week 2, Mean (SD)” value ([2]; Male) was 16.2 (6.58) and the “HAM-D-17 Total at Week 2, Median” value ([2]; Male) was 17. For the same compound, the “HAM-D-17 Total at Week 4, Mean (SD)” value ([2]; Male) was 14.3 (6.96) and the “HAM-D-17 Total at Week 4, Median” value ([2]; Male) was 15.
